What is called IC50 is the concentration needed to halve the response being measured.

This note sets out measurements from US12281123B2, “Benzoxazinone compounds as KLK5/7 dual inhibitors” (MOLECULAR SKIN THERAPEUTICS, INC., priority 2019, dated 2025).

“And” between values parts separate entries of the source, which are not always exact repeats. Identical values can stand only once. Like-named read-outs stand apart in the source and are kept apart here.

What all share (format): biochemical
In assay [1] the target is T1, Recombinant human KLK5 (Homo sapiens, UniProt Q9Y337).
T1 construct: purchased SpeedBio (Gaithersburg, MD) / SpeedBioSystems; host or cells: HEK293
T1 sequence (Q9Y337 23-293): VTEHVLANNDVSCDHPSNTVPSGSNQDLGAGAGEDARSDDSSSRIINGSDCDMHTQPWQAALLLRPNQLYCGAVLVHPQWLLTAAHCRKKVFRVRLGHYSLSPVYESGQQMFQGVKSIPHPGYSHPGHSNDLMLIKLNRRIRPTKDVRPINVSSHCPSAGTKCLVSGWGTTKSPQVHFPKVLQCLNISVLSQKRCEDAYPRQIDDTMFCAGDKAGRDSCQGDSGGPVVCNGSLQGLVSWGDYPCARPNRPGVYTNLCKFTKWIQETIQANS
Kind of assay: Recombinant KLK5 chromogenic IC50 assay. From the text: (§1) Human Kallikrein Proteins: Recombinant human KLK5 expressed in HEK293 was obtained from SpeedBio (Gaithersburg, MD). Recombinant proenzyme KLK-7 and recombinant proenzyme KLK-14 both expressed in mouse myeloma cells were from R&D Biosystems (Minneapolis, MN). Plasmin and thrombin were from Haematologic Technologies (Essex Junction, VT). Trypsin and Chymotrypsin were bought from Worthington Biochemical Corporation (Lakewood, NJ) and plasma kallikrein was from Prospec (East Brunswick, NJ). Neutrophil Elastase was obtained from Innovative Research (Peary Court, MI). Bovine recombinant enterokinase expressed in E. coli was bought from Sigma (St. Louis, MI). Matriptase expressed in E. coli was obtained from Enzo Life Sciences (Farmingdale, NY). The control inhibitors Nafamostat mesylate was from Sigma (St. Louis, MI) and (2-(2-fluorophenyl)-5,6,7,8-tetrahydro-4H-benzo[4,5]thieno[2,3-d][1,3]oxazin-4-one was from Interbioscreen (Moskow, Russia).
(§2) Substrates: S-2288 (D-Ile-Pro-Arg-pNA), CS-PSA (MeO-Suc-Arg-Pro-Tyr-pNA), S-2266 (H-D-Val-Leu-Arg-pNA) and S-2288 (H-D-Ile-Pro-Arg-pNA) were bought from Diapharma (West Chester, OH). MeOSuccAla-Ala-Pro-Val-pNA was purchased from Sigma (St Louis, MI). The substrates were dissolved in water at 10 mM and were frozen in aliquots at −20° C.
(§3) Assays: All assays were performed in 384 well polystyrene plates coated overnight with 0.1% Tween 20 at 4° C. The plates were then washed twice with 100 μL water and dried. For the determination of IC50 values, the inhibitors were diluted in serial dilutions of 1:3 intervals into pure DMSO at 50 fold of the intended final concentrations in the assays. Usually eight inhibitor dilutions and one DMSO control were prepared. The substrates were diluted into water at 2.2-fold the final concentration in the assay mixture. The wells of the plate were filled with 50 μL of the enzyme diluted in 2× assay buffer (100 mM Tris, 200 mM NaCl, 0.2% PEG, 0.01% Tween, 2 mM EDTA, pH 8.0) at twofold the intended concentration. Then 5 μL DMSO, 2.2 μL inhibitor and 45 μL substrate were added to start the reaction. The assays were monitored at 37° C. in a multi well plate reader at a wavelength of 405 nm (Molecular Devices, San Jose, CA) for 1 h. The tool inhibitor, nafamostat, was used as a control for trypsin, thrombin, KLK-5 and KLK-14 at 10 μM maximal concentration and (2-(2-fluorophenyl)-5,6,7,8-tetrahydro-4H-benzo[4,5]thieno[2,3-d][1,3]oxazin-4-one for KLK-7 at 5 μM.
(§4) The table summarizes assay conditions for the individual enzymes:
(§5) Data analysis: The progress curves of substrate hydrolysis were analyzed by linear regression of the final 20 min of the reaction. Fit of the dose response of the resulting rates to the following equation yielded the IC50:
(§6) [formula] with 1) c: the background rate at the highest inhibitor concentration; 2) d: the rate of the control reaction; 3) IC50: the IC50 of the inhibitor; 4) x: the inhibitor concentration; and 5) b: the slope.
(§7) Proteases: KLK5 (SpeedBioSystems); KLK7 (R&Dsystems) was activated with enterokinase (2 hours, 37° C.) prior to assay; Trypsin (Sigma Aldrich); Chymotrypsin (Sigma Aldrich); Factor Xa (Haematologic Technologies); Plasmin (Haematologic Technologies); KLK14 (R&Dsystems) was activated with enterokinase (1 hour, 37° C.) prior to assay; Thrombin (Haematologic Technologies); Neutrophil Elastase (Athens Research&Technology); and KLK1 (Prospec).

The target in assay [2] is T2, Plasmin (Homo sapiens, UniProt P00747).
T2 construct: purchased Haematologic Technologies (Essex Junction, VT)
Kind of assay: Chromogenic assay, plasmin. To be noted: Plasmin 1.0 nM; S-2288 500 μM; highest conc. of 1.001 50 μM.
Excerpt: as §1, with “Russia). […]” for “Russia).”
(§8) Assays: All assays were performed in 384 well polystyrene plates coated overnight with 0.1% Tween 20 at 4° C. […] The assays were monitored at 37° C. in a multi well plate reader at a wavelength of 405 nm (Molecular Devices, San Jose, CA) for 1 h. […]
(§9) Data analysis: The progress curves of substrate hydrolysis were analyzed by linear regression of the final 20 min of the reaction. […]

For assay [3], the target named is T3, KLK7 (Homo sapiens, UniProt P49862).
T3 construct: purchased R&D Biosystems (Minneapolis, MN) / R&Dsystems; host or cells: mouse myeloma cells
Kind of assay: Recombinant KLK7 chromogenic IC50 assay.
Excerpt: as §1, §2
Activation of KLK-7 and KLK-14: 150 μL 8 μM solution of the proenzymes of KLK-7 or KLK-14 in 50 mM Tris, 10 mM CaCl2, 150 mM NaCl, 0.05% (w/v) Brij-35, pH 7.5 were mixed with 150 μL 10 μg/mL bovine enterokinase in the same buffer and incubated for 2 h for KLK-7 and 1 h for KLK-14 at 37° C. After the incubation period, activation was stopped by addition of 6 μL 0.5 M EDTA pH 8.0.
as §3, §4, §5, §6, §7

The target in assay [4] is T4, Neutrophil Elastase (Homo sapiens, UniProt P08246).
T4 sequence (P08246 30-267): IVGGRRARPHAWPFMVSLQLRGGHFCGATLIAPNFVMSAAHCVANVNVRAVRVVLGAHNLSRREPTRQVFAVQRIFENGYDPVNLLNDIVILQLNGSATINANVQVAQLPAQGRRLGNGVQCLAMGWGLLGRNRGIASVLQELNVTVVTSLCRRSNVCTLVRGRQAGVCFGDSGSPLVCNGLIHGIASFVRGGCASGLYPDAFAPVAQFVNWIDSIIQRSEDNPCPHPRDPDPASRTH
The assay can be described thus: Chromogenic assay, neutrophil elastase. The conditions noted are these: Neutrophil Elastase 0.5 nM; Elastase substrate 1 200 μM; highest conc. of 1.001 100 μM.
Excerpt: as §1, with “Russia). […]” for “Russia).”
as §8, §9

For assay [5], the target named is T5, Trypsin (UniProt P00760).
T5 sequence (P00760 1-246): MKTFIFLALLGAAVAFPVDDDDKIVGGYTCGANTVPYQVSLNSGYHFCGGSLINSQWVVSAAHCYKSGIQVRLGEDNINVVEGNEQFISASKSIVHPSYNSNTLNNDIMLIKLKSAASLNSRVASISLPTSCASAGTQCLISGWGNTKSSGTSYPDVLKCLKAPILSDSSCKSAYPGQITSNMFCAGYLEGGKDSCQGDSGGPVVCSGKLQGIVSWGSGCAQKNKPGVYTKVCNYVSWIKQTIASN
The assay can be described thus: Chromogenic assay, trypsin. The conditions noted are these: Trypsin 0.1 nM; S-2288 500 μM; highest conc. of 1.001 50 μM.
Excerpt: as §1, with “Russia). […]” for “Russia).”
as §8, §9

T3 sequence (P49862 30-253): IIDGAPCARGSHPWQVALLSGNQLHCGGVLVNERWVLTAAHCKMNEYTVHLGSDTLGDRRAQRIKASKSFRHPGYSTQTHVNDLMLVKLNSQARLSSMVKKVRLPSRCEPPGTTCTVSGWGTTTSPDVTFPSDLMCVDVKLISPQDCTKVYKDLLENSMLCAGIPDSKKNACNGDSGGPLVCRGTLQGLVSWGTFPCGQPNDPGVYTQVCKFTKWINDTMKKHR
T2 sequence (P00747 581-810 limits assumed, species assumed): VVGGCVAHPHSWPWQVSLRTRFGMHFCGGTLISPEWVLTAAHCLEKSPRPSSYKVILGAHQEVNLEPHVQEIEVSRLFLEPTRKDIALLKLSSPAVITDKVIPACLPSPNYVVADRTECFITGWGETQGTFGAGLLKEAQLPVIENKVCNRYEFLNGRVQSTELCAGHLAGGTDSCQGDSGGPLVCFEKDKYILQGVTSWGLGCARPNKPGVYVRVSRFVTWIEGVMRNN
T2 sequence (P00747 97-580 partner limits assumed, species assumed): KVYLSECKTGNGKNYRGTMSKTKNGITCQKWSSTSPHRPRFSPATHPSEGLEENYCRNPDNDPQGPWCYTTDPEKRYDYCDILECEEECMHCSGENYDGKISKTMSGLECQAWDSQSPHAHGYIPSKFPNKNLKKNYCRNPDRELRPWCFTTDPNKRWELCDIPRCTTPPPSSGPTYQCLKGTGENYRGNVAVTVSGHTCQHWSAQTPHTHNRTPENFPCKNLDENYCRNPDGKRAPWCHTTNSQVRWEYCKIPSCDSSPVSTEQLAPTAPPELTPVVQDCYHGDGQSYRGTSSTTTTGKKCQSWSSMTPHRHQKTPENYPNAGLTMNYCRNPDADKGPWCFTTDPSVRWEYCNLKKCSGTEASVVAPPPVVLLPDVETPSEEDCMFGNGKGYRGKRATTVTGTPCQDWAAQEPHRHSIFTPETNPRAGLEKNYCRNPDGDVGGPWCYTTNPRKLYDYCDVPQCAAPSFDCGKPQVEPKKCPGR

Take `CS(=O)(=O)c1cc(CO)ccc1C(=O)Nc1cc2c(cc1C(=O)O)OCCO2` [Compound 408, reference compound]: the “IC50 (μM), KLK5” value in assay [1] (Table 3, KLK5 10 nM, S-2288 500 μM, highest conc. of 1.001 10 μM) is on record as “No inhibition”. In addition, the “IC50 (μM), Plasmin” value in assay [2] is listed as “No inhibition”. Further, in assay [3] (Table 3, KLK7 20 nM, CS-PSA 500 μM, highest conc. of 1.001 20 μM), the “IC50 (μM), KLK7” value is recorded as “No inhibition”. For the same molecule, the IC50 in assay [4] is > 500 µM. The “IC50 (μM), Trypsin” value in assay [5] is listed as “No inhibition”.

`CS(=O)(=O)c1cc(CO)ccc1-c1nc2cc3c(cc2c(=O)o1)OCCO3` [Compound 1.001, 2-(4-(Hydroxymethyl)-2-(methylsulfonyl)phenyl)-7,8-dihydro-4H-[1,4]dioxino[2′,3′:4,5]benzo[1,2-d][1,3]oxazin-4-one]: the IC50 in assay [1] (Table 2, assay protocol of Example 3, read-out: Recombinant KLK5 enzyme (IC50)) was 0.21 µM; in assay [1] (Table 3, KLK5 10 nM, S-2288 500 μM, highest conc. of 1.001 10 μM, read-out: IC50 (μM), KLK5), 0.176 µM and 0.188 µM; in assay [2] it was 3.36 µM and 4.2 µM; in assay [3] (Table 2, assay protocol of Example 3, read-out: Recombinant KLK7 enzyme (IC50)), 0.34 µM; in assay [3] (Table 3, KLK7 20 nM, CS-PSA 500 μM, highest conc. of 1.001 20 μM, read-out: IC50 (μM), KLK7), 0.647 µM and 0.693 µM; in assay [4], > 50 µM. The concentration for half-maximal inhibition (IC50) in assay [5] is 1.66 µM and 1.36 µM and 2.2 µM. In assay [1] (conclusion from Table 3), the “Inhibition of KLK5, conclusion in words” value was “inhibitor”. Moreover, the “Inhibition of KLK7, conclusion in words” value in assay [3] (conclusion from Table 3) is given as “inhibitor”.
